Experimental data reported in ChEMBL document CHEMBL4138233, “Purine analogs targeting the guanine riboswitch as potential antibiotics against Clostridioides difficile” (Eur J Med Chem, 2018).
pKd: −log10 of the molar value. In brackets after ≈: the same amount, converted by molar mass. Activity calls are given as the source filed them. No cut-off for these calls is given here.

Experiments:
[1] = Binding affinity to Clostridium difficile [5'-32P]guaA riboswitch by polyacrylamide gel electrophoresis method; set-up: species or system Clostridioides difficile
Clostridioides difficile [2] = assay: Antibacterial activity against Clostridium difficile ATCC 700057 by broth microdilution method; format: functional
Clostridioides difficile [3] = assay: Antibacterial activity against Clostridium difficile ATCC 700057 up to 5000 ug/ml by broth microdilution method; format: functional, organism-based
[4] = Binding affinity to Staphylococcus aureus [5'-32P]guaA riboswitch by polyacrylamide gel electrophoresis method
[5] = Binding affinity to Bacillus subtilis guaA riboswitch

| Structure (SMILES) | pKd [1] | MIC (Clostridioides difficile [2]) [µg/mL] | Activity (Clostridioides difficile [3]) | pKd [4] | pKd [5] |
| --- | --- | --- | --- | --- | --- |
| COc1ccc(CNc2nc(N)nc3[nH]cnc23)cc1 | 4.15 | 313 (≈ 1.16 mM) | – | – | – |
| Nc1nc2nsnc2c(=O)[nH]1 | < 3.00 | – | inactive | – | – |
| O=c1[nH]c(NCc2ccccn2)nc2[nH]cnc12 | 4.61 | – | inactive | – | – |
| CCCNc1nc(N)nc2[nH]cnc12 | 4.17 | 625 (≈ 3.25 mM) | – | – | – |
| COCCCNc1nc2[nH]cnc2c(=O)[nH]1 | 5.66 | – | inactive | – | – |
| O=C(Nc1nc2[nH]cnc2c(=O)[nH]1)N1CCOCC1 | 5.74 | – | inactive | – | – |
| Nc1nc(NC2CC2)c2nc[nH]c2n1 | 4.60 | 1250 (≈ 6.57 mM) | – | – | – |
| CCCCNc1nc(N)nc2[nH]cnc12 | 4.91 | 313 (≈ 1.52 mM) | – | – | – |
| CCCCNc1nc(O)c2[nH]cnc2n1 | 5.40 | 625 (≈ 3.02 mM) | – | – | – |
| NC(=O)Nc1nc2[nH]cnc2c(=O)[nH]1 | 4.68 | – | inactive | – | – |
| NCCNc1nc(N)nc2[nH]cnc12 | < 3.00 | – | inactive | – | – |
| Nc1nc(NCC2CC2)c2nc[nH]c2n1 | 4.16 | 312 (≈ 1.53 mM) | – | – | – |
| Nc1nc2scnc2c(=O)[nH]1 | 5.13 | – | inactive | – | – |
| O=C(Nc1nc2[nH]cnc2c(=O)[nH]1)N1CCCCC1 | 4.53 | – | inactive | – | – |
| CN(C)CCNC(=O)Nc1nc2[nH]cnc2c(=O)[nH]1 | 5.69 | – | inactive | – | – |
| O=c1[nH]c(NCCc2ccc(O)cc2)nc2[nH]cnc12 | < 3.00 | 1250 (≈ 4.61 mM) | – | – | – |
| NCCCNc1nc(N)nc2[nH]cnc12 | 6.49 | – | inactive | – | – |
| Nc1nc(NCCCO)c2nc[nH]c2n1 | 6.20 | – | inactive | – | – |
| O=c1[nH]c(NC2CCCCC2)nc2[nH]cnc12 | 5.19 | 78 (≈ 0.334 mM) | – | – | – |
| CN(C)C(=O)Nc1nc2[nH]cnc2c(=O)[nH]1 | 4.79 | 1250 (≈ 5.63 mM) | – | – | – |
| O=c1[nH]c(NCCCO)nc2[nH]cnc12 | 5.01 | – | inactive | – | – |

| Structure (SMILES) | pKd [1] | MIC (Clostridioides difficile [2]) [µg/mL] | Activity (Clostridioides difficile [3]) | pKd [4] | pKd [5] |
| --- | --- | --- | --- | --- | --- |
| O=c1[nH]c(NC2CCC2)nc2[nH]cnc12 | 5.62 | 1250 (≈ 6.09 mM) | – | – | – |
| O=C(NCCO)Nc1nc2[nH]cnc2c(=O)[nH]1 | 5.57 | – | inactive | – | – |
| Nc1nc(N)c(N)c(=O)[nH]1 | – | – | – | 7.00 | – |
| O=C(NCCN1CCOCC1)Nc1nc2[nH]cnc2c(=O)[nH]1 | 4.56 | 1250 (≈ 4.07 mM) | – | – | – |
| Nc1nc(NCc2ccc(F)cc2)c2nc[nH]c2n1 | 4.60 | 313 (≈ 1.21 mM) | – | – | – |
| Nc1nc2nnccc2c(=O)[nH]1 | < 3.00 | – | inactive | – | – |
| CCC(=O)Nc1nc2[nH]cnc2c(=O)[nH]1 | 6.25 | – | inactive | – | – |
| Nc1nc2ncsc2c(=O)[nH]1 | < 3.00 | 78 (≈ 0.464 mM) | – | – | – |
| Nc1nc(NCc2ccccc2)c2[nH]cnc2n1 | 6.03 | – | inactive | – | – |
| Nc1nc(O)c2ncn(Cc3ccccc3)c2n1 | < 3.00 | – | inactive | – | – |
| CNc1nc2[nH]cnc2c(=O)[nH]1 | < 3.00 | – | inactive | – | – |
| Cn1cnc2c(O)nc(N)nc21 [9-Methylguanine] | 5.09 | – | inactive | – | – |
| O=C(O)CCCC(=O)Nc1nc2[nH]cnc2c(=O)[nH]1 | 6.35 | – | inactive | – | – |
| CC(=O)Nc1nc(=O)c2[nH]cnc2[nH]1 | 5.98 | – | inactive | – | – |
| Nc1nc(NC2CCC2)c2nc[nH]c2n1 | < 3.00 | 1250 (≈ 6.12 mM) | – | – | – |
| Nc1nc2[nH]cnc2c(=O)[nH]1 [GUANINE] | 8.70 | – | – | – | 8.30 |
| Nc1nc(NCc2cccnc2)c2nc[nH]c2n1 | < 3.00 | 625 (≈ 2.59 mM) | – | – | – |
| CNC(=O)Nc1nc2[nH]cnc2c(=O)[nH]1 | < 3.00 | – | inactive | – | – |
| CN(C)c1nc(N)nc2[nH]cnc12 | 4.32 | – | inactive | – | – |
| O=c1[nH]c(NCCc2c[nH]cn2)nc2[nH]cnc12 | 3.52 | 1250 (≈ 5.1 mM) | – | – | – |
| Nc1nc2snnc2c(=O)[nH]1 | < 3.00 | 156 (≈ 0.922 mM) | – | – | – |
